From the SangsterLogP compilation come the findings set out here.

Settings in one data set: not given
`CC(C)c1cc(Oc2ccccc2)cc(C(C)C)c1NC(=S)NC(C)(C)C` gave a log partition coefficient (logP) of 5.76.
Take `CCCCC(CC)CN1C(=O)C2C3C=CC(C3)C2C1=O` (stereo unspecified): the logP was 3.7.
As to `O=[N+]([O-])c1ccc(NS(=O)(=O)c2ccc(Cl)c(C(F)(F)F)c2)c(Cl)c1`, the logP worked out at 2.4.
The compound `CC1(C)C(C=C(Cl)Cl)C1C(=O)OC(C#N)c1ccc(F)c(Oc2ccccc2)c1` (stereo unspecified) came in with a logP of 5.93.
Consider `CCCCCOC(=O)COc1cc(N2C(=O)C3=C(CCCC3)C2=O)c(F)cc1Cl`, for which the logP amounted to 4.99.
Consider `COP(=S)(OC)Oc1ccc(C#N)cc1`, for which the logP is 2.65.
`CCN(CC)C(=O)SCc1ccccc1Cl`: the logP was 3.43.
The compound `C/C=C\COCN(C(=O)CCl)c1c(CC)cccc1CC` displayed a logP of 3.51.
Compound `C#CCOS(=O)OC1CCCCC1Oc1ccc(C(C)(C)C)cc1` (stereo unspecified) had a logP of 3.73.
Same read-out and setting: in the case of `O=C1C(Cl)=C(Cl)C(=O)N1c1ccc(F)cc1` it was 2.3; in that of `CCOC(=O)C(Cl)Cc1cc(-n2nc(C)n(C(F)F)c2=O)c(F)cc1Cl` (stereo unspecified), 3.36.
Same read-out and setting: the value for `CC(C)N(Cc1ccccc1)C(=O)C(C)(C)C` was 3.
In turn, `O=c1oc2ccccc2c(O)c1C1CC(c2ccc(OCc3ccc(C(F)(F)F)cc3)cc2)Cc2ccccc21` (stereo unspecified) returned a logP of 4.7.
`CC1(C)[C@H](C(=O)O[C@H](C#N)c2cccc(Oc3ccccc3)c2)[C@@H]1C(Br)C(Br)(Br)Br` (stereo partly specified) gave a logP of 5.
Take `CCCSP(=O)(OCC)Oc1ccc(Br)cc1Cl` (stereo unspecified): the logP was determined as 4.44.
On the same count and under the same terms, the value for `COCC(C)N(C(=O)CCl)c1c(C)csc1C` (stereo unspecified) was 2.15.
On to `CCOC1Oc2ccc(OS(C)(=O)=O)cc2C1(C)C` (stereo unspecified), for which the logP was 2.7.
On the same count and under the same terms, the value for `Cl/C=C\CCl` was 2.06; that for `O=C1c2ccccc2C(=O)N1SC(Cl)(Cl)Cl` was 3.11.
`CCCCC(CC)N1C(=O)C2C3C=CC(C3)C2C1=O` (stereo unspecified) yielded a logP of 3.8.
`C=CCN(CC=C)C(=O)C(Cl)Cl` displayed a log partition coefficient (logP) of 1.84.
As to `CCC1OCC(COc2ccc(Oc3ccccc3)cc2)O1` (stereo unspecified), the logP came out at 4.3.
Still for that read-out and setting: in the case of `C=CCCCOC(=O)C(CC)N(Cc1ccco1)C(=O)n1ccnc1` (stereo unspecified) it was 3; in that of `CCCCOC(=O)N(C)SN(C)C(=O)Oc1cccc2c1OC(C)(C)C2`, 4.6.
The compound `CCOP(=S)(OCC)Oc1ccc(=O)n(-c2ccccc2)n1` had a logP of 3.2.
On to `CCNP(=S)(OC)O/C(C)=C/C(=O)OC(C)C` (stereo unspecified), for which the logP turned out to be 3.82.
As for `CC(C)N1C(=O)N(c2ccccc2)CS/C1=N\C(C)(C)C`, the logP was 4.3.
`NC(=O)c1nc(-c2ccccc2)n(-c2ccc(Cl)c(COCC(F)(F)C(F)(F)F)c2)n1` came in with a logP of 3.27.
On to `O=C(NC(=O)c1ccccc1Cl)Nc1ccc(OC(F)(F)F)cc1`, for which the logP came out at 4.91.
Consider `CCOC(=O)[C@@H](C)Oc1ccc(Oc2nc3ccc(Cl)cc3o2)cc1`, for which the lipophilicity (logP) amounted to 4.58.
The compound `CCOCN(C(=O)CCl)c1c(C)cccc1CC` yielded a logP of 3.03.
Consider `CC(C)=CC1C(C(=O)OCc2coc(Cc3ccccc3)c2)C1(C)C` (stereo unspecified), for which the logP turned out to be 5.4.
Still for that read-out and setting: in the case of `O=S(=O)(c1ccc(Cl)cc1)c1cc(Cl)c(Cl)cc1Cl` it was 4.61.
As for `C=CCNC(=O)CN(CC=C)C(=O)C(Cl)Cl`, the logP came to 1.
Still for that read-out and setting: in the case of `O=C(Nc1ccc(Cl)cc1C(O)c1ccccc1)c1ccncc1` (stereo unspecified) it was 3.13; in that of `COC(C)(C)CCCC(C)C/C=C/C(C)=C/C(=O)OC(C)C` (stereo unspecified), 5.21; in that of `COc1ccc(/C(=C\C(=O)N2CCOCC2)c2ccc(Cl)cc2)cc1OC`, 2.73.
Same read-out and setting: in the case of `CCCCOC(=O)[C@@H](C)Oc1ccc(Oc2ccc(C(F)(F)F)cn2)cc1` it was 4.5.
Consider `COP(=S)(OC)Oc1ccc(Sc2ccc(OP(=S)(OC)OC)cc2)cc1`, for which the logP worked out at 4.91.
`CC(C)C1CCC(Cc2ccc(Cl)cc2)C1(O)Cn1cncn1` (stereo unspecified): the logP came out at 4.21.
On to `CCNc1nc(Cl)nc(NCC)n1`, for which the logP was 2.1.
In turn, `CCOC(=O)c1cn2nc(OP(=S)(OCC)OCC)cc2nc1C` showed a logP of 3.8.
On the same count and under the same terms, the value for `Clc1ccccc1-c1nnc(-c2ccccc2Cl)nn1` was 3.1; that for `CCOc1nc(C(Cl)(Cl)Cl)ns1` was 3.37.
`COC(=O)c1c(Cl)c(Cl)c(C(=O)OC)c(Cl)c1Cl` gave a logP of 4.28.
`COCCN(C(=O)CCl)c1c(C)cccc1C` registered a logP of 2.2.
Same read-out and setting: in the case of `C[C@@H](Oc1ccc(Oc2ccc(C#N)cc2F)cc1)C(=O)O` it was 3.31; in that of `CN(C)C(=O)Nc1cc(C(C)(C)C)on1`, 1.98; in that of `CN(C)C(=O)Nc1ccc(Cl)c(Cl)c1`, 2.85.
In turn, `CN(C)C(=O)Nc1ccc(-n2nc(C(C)(C)C)oc2=O)c(Cl)c1` had a logP of 2.51.
Consider `O=C1C2CC=CCC2C(=O)N1SC(Cl)(Cl)Cl` (stereo unspecified), for which the logP worked out at 2.78.
Take `CCSCCSP(=S)(OC)OC`: the logP amounted to 3.46.
Turning to `CON(C)C(=O)Nc1ccc(Br)cc1`, the logP came to 2.41.
Compound `C/C=C/C(=O)Oc1c(C(C)CCCCCC)cc([N+](=O)[O-])cc1[N+](=O)[O-]` (stereo unspecified) showed a logP of 4.54.
With `CC(C)=CC1C(C(=O)OCN2C(=O)C3=C(CCCC3)C2=O)C1(C)C` (stereo unspecified), the logP was found to be 4.49.
On to `CCOCCOC(=O)C(C)Oc1ccc(Oc2ncc(C(F)(F)F)cc2Cl)cc1` (stereo unspecified), for which the logP was determined as 4.33.
In the case of `COP(=O)(OC)OC1=C(Cl)C2C=CCC12` (stereo unspecified), the logP amounted to 2.32.
Turning to `CCC(=O)Nc1ccc(Cl)c(Cl)c1`, the logP came to 3.3.
The same measure, in the same setting: in the case of `CC1(C)CCC(Cc2ccc(Cl)cc2)C1(O)Cn1cncn1` (stereo unspecified) it was 3.93; in that of `CCOP(=S)(OCC)Oc1nc(Cl)n(C(C)C)n1`, 2.99; in that of `Cc1cnc(C2=NC(C)(C(C)C)C(=O)N2)c(C(=O)O)c1` (stereo unspecified), 0.39.
Same read-out and setting: in the case of `CCSCc1ccccc1OC(=O)NC` it was 2.04; in that of `CC1COc2ccccc2N1C(=O)C(Cl)Cl` (stereo unspecified), 2.7.
Turning to `CNC(=O)ON=C(C)C(C)SC` (stereo unspecified), the logP worked out at 1.11.
`CC(C)OC(=O)C(O)(c1ccc(Br)cc1)c1ccc(Br)cc1`: the logP amounted to 5.4.
In turn, `CCOc1ccc(C2(C(=O)OC(C#N)c3cccc(Oc4ccccc4)c3)CC2(Cl)Cl)cc1` (stereo unspecified) returned a logP of 4.19.
`CCOP(=O)(SC(C)CC)SC(C)CC` (stereo unspecified) displayed a logP of 3.9.
In the case of `CC(C)OC(=O)C(C(=O)OC(C)C)=C1SCCS1`, the logP worked out at 3.3.
On the same count and under the same terms, in the case of `CC(Oc1ccc(Oc2ncc(Cl)cc2Cl)cc1)C(=O)N1CCCO1` (stereo unspecified) it was 3.36.
The same measure, in the same setting: the value for `Nc1cnn(-c2ccccc2)c(=O)c1Cl` was 1.19.
Compound `CC1=NNC(=O)N(/N=C/c2cccnc2)C1` had a logP of -0.18.
With `OC1(c2ccc(Cl)cc2)CCCCCC1n1cncn1` (stereo unspecified), the logP was 3.02.
Consider `CCOC(=O)C1(C)OC(=O)N(c2cc(Cl)cc(Cl)c2)C1=O` (stereo unspecified), for which the logP came to 3.3.
For the compound `CCN(CC)C(=O)C(C)Oc1cccc2ccccc12` (stereo unspecified), the logP was found to be 3.3.
Consider `CC1(C)CC/C(=C\c2ccc(Cl)cc2)C1(O)Cn1cncn1` (stereo unspecified), for which the logP is 3.29.
Take `CC(C)NC(=O)N1CC(=O)N(c2cc(Cl)cc(Cl)c2)C1=O`: the logP came to 3.
On the same count and under the same terms, in the case of `CCSC(C)CC1CC(=O)C(/C(CC)=N/OC/C=C/Cl)=C(O)C1` (stereo unspecified) it was 4.19; in that of `CCSCCSP(=O)(OC)OC`, 1.32.
For the compound `CCCOC(=O)c1ccc(C(=O)OCCC)nc1`, the logP stood at 3.57.
For `CC1(C)CON(Cc2ccccc2Cl)C1=O`, the logP came out at 2.5.
With `O=CNC(N1CCN(C(NC=O)C(Cl)(Cl)Cl)CC1)C(Cl)(Cl)Cl` (stereo unspecified), the logP was 2.2.
The compound `COC(=O)C(C)N(C(=O)c1ccco1)c1c(C)cccc1C` (racemic) came in with a logP of 2.7.

Settings in the next data set: not given
The source holds these as a separate data set.
Compound `CCCCCCCCn1sccc1=O` returned a logP of 2.45.
In turn, `CCCN(CCC)C(=O)SCc1ccccc1` displayed a logP of 4.65.
Regarding `FC(F)C(F)(F)OCC(Cn1cncn1)c1ccc(Cl)cc1Cl` (stereo unspecified), the logP was 3.53.
In turn, `O=C(Nc1ccccc1)Nc1ccnc(Cl)c1` showed a logP of 3.2.
In the case of `C/C(=N\C#N)N(C)Cc1ccc(Cl)nc1`, the logP amounted to 0.8.
As for `Clc1ccc(C2(Cn3cncn3)CC(Br)CO2)c(Cl)c1` (stereo unspecified), the logP is 3.24.
With `CCS(=O)(=O)Oc1ccc2c(c1)C(C)(C)CO2`, the logP was found to be 2.41.
Regarding `O=C(NC(=O)c1c(F)cccc1F)Nc1cc(Cl)c(OC(F)(F)C(F)C(F)(F)F)cc1Cl` (stereo unspecified), the logP was found to be 5.12.
Take `C#CCC1=C(C)C(OC(=O)C2C(C=C(C)C)C2(C)C)CC1=O` (stereo unspecified): the logP worked out at 4.49.
Still for that read-out and setting: the value for `CCN(Cc1c(F)cccc1Cl)c1c([N+](=O)[O-])cc(C(F)(F)F)cc1[N+](=O)[O-]` was 5.45; that for `CNC(=O)CSP(=O)(OC)OC` was -0.75.
Still for that read-out and setting: the value for `COC(=O)c1c(C(F)F)nc(C(F)(F)F)c(C2=NCCS2)c1CC(C)C` was 3.89; that for `COCC(=O)N(c1c(C)cccc1C)N1CCOC1=O` was 0.73.
Compound `CC1(C)OC(c2ccco2)CN1C(=O)C(Cl)Cl` (stereo unspecified) gave a logP of 2.12.
As to `COc1ccsc1CN(C(=O)CCl)c1c(C)cccc1C`, the logP is 3.53.
As for `CC(C)(C)C(O)/C(=C\c1ccc(Cl)cc1)n1cncn1` (stereo unspecified), the logP amounted to 3.67.

The same data set, now with this note: pH 5.0.
Take `CCS(=O)(=O)c1cccnc1S(=O)(=O)NC(=O)Nc1nc(OC)cc(OC)n1`: the logD is 0.29.
The compound `Cc1cc(C2CC2)nc(Nc2ccccc2)n1` yielded a logD of 3.9.

The data set is the same for the next values; noted with them: pH 5.6.
In turn, `O=c1c2cc(F)ccc2nc(-n2cncn2)n1-c1ccc(Cl)cc1Cl` showed a logD of 3.24.

Staying with this data set, now noted: pH 6.1.
Take `Cc1cc(C)nc(Nc2ccccc2)n1`: the logD amounted to 2.84.

Still in this data set, the particulars now being: pH 6.5.
Compound `CNC(=O)ON=C(C)C(C)S(C)(=O)=O` (stereo unspecified) registered a logD of 1.11.
`COc1ccc(C(O)(c2cncnc2)C2CC2)cc1` (stereo unspecified) showed a logD of 1.91.

Staying with this data set, now noted: pH 7.0.
In turn, `CC(C1CC1)C(O)(Cn1cncn1)c1ccc(Cl)cc1` (stereo unspecified) yielded a logD of 2.91.
Turning to `CC(C)C(O)(c1ccc(OC(F)(F)F)cc1)c1cncnc1` (stereo unspecified), the logD was 3.34.
The compound `CN1CSC(=S)N(C)C1` displayed a logD of 1.4.
For `CCOC(=O)CSc1nc(C(C)(C)C)nn1C(=O)N(C)C`, the logD amounted to 2.69.
Still for that read-out and setting: the value for `COc1cc(OC)n2nc(S(=O)(=O)Nc3c(Cl)ccc(C)c3Cl)nc2n1` was 2.46; that for `CCOC(=O)CCN(SN(C)C(=O)Oc1cccc2c1OC(C)(C)C2)C(C)C` was 4.3.

The data set is the same for the next values; noted with them: pH 7.3.
`O=C(Nc1ccccc1)Nc1cnns1` came in with a logD of 1.77.

A word on the logP: it is the decadic logarithm of the partition coefficient of the neutral form, usually between octanol and water. As usually defined, the logD is the decadic logarithm of the distribution of all forms, ionised or not, between an organic phase and buffer at a given pH.
